In one data set the test system is Rat Fundus. The data set can be described thus: Functional (Antagonist Rat Fundus). It counts as cell-based. On the procedure:
(§1) Compounds of the invention were made according to the respective syntheses noted above, and their activity and selectivity was determined. […] The compounds accordingly are expected to be useful as 5-HT2B receptor modulators, e.g., in the treatment of a wide variety of clinical conditions which are characterized by serotonin excess or absence, e.g., serotoninergic hypofunction or hyperfunction. Such conditions include those noted above, and conditions associated with vascular disorders, e.g., angina, migraine, pulmonary hypertension and systemic hypertension.

Data set [1] can be described thus: Rat pharmacokinetics (% F, T1/2). The following applies: in vivo; for bioavailability: oral, read-out: PK (% F) rat.
Another data set concerns the target 5-HT2B (Homo sapiens, UniProt P41595). The data set can be described thus: 5-HT2B receptor affinity (K1, Table 1). The class given is binding. On the procedure: as §1

Like-named read-outs stand apart in the source and are kept apart here.

Sequence of 5-HT2B (P41595 whole entry, species assumed): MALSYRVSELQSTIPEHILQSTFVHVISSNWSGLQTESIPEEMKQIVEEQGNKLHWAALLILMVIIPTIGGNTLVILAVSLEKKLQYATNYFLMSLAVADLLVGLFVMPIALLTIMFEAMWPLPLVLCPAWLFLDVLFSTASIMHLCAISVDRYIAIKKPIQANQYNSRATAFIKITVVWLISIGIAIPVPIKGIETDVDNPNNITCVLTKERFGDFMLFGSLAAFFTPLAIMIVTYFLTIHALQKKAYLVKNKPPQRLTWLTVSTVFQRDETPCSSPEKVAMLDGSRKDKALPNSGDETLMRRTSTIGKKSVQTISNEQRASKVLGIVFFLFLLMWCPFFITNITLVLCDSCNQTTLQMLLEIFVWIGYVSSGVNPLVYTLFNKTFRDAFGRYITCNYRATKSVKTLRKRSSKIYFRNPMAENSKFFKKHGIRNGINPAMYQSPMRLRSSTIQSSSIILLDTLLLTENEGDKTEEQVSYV

Regarding `CC(C)c1cc2c(NC3CCN(Cc4cc(F)cc(F)c4)CC3)ncnc2s1` [Compound 1], the IC50 with Rat Fundus was 830 nM. Further, the bioavailability in data set [1] came out at 9.8%. Also, the affinity on 5-HT2B corresponds to a Ki of 0.57 nM.

On to `Fc1cccc(CN2CCC(Nc3ncnc4sc(Cl)cc34)CC2)c1` [Compound 2], for which the Ki at 5-HT2B turned out to be 0.79 nM. In the data set on Rat Fundus, `CC(C)Cc1cc2c(NC3CCN(C(C)c4cccc(F)c4)CC3)ncnc2s1` (stereo not drawn) [Compound 3] had a concentration for half-maximal inhibition (IC50) of 5300 nM. Also, in data set [1], the bioavailability was determined as 3.9%. Also, in data set [1] (po, read-out: T1/2 (hr) rat* po (converted)), the half-life is 0.45 h. This molecule had a Ki at 5-HT2B of 0.97 nM. As for `Fc1cccc(CN2CCC(Nc3ncnc4sc5c(c34)CCCC5)CC2)c1` [Compound 4], the IC50 in the data set on Rat Fundus was determined as 100 nM. On 5-HT2B, this molecule showed a Ki of 2.3 nM. Consider `CC(c1cc(F)cc(F)c1)N1CCC(Nc2ncnc3sc4c(c23)CCCC4)CC1` (stereo not drawn) [Compound 5], for which half-maximal inhibition in the data set on Rat Fundus (IC50) was put at 1300 nM. The molecule also showed a Ki at 5-HT2B of 2.64 nM. At 5-HT2B, `CC(c1cccc(F)c1)N1CCC(Nc2ncnc3sc4c(c23)CCCC4)CC1` (stereo not drawn) [Compound 6] yielded an inhibition constant Ki of 4 nM. In the data set on Rat Fundus, `CC(C)Cc1cc2c(NC3CCN(C(C)c4cc(F)cc(F)c4)CC3)ncnc2s1` (stereo not drawn) [Compound 7] registered an IC50 of 5700 nM. For the same molecule, the bioavailability in data set [1] was 2.8%. Also, affinity at 5-HT2B was put at a Ki of 4.2 nM.

Take `Cc1sc2ncnc(NC3CCN(C(C)c4cccc(F)c4)CC3)c2c1C` (stereo not drawn) [Compound 8]: on 5-HT2B, the Ki came to 4.6 nM. Still for that read-out and setting: to `Cc1sc2ncnc(NC3CCN(CC4CCCCC4)CC3)c2c1C` [Compound 9] belongs 7.8 nM. For the molecule `c1ccc(CN2CCC(Nc3ncnc4sc5c(c34)CCCC5)CC2)cc1` [Compound 10], the IC50 with Rat Fundus was 110 nM. Further, the bioavailability in data set [1] was 1.5%. At 5-HT2B, this molecule gave a Ki of 13 nM.

Take `CC(c1cccc(F)c1)N1CCC(Nc2ncnc3sccc23)CC1` (stereo not drawn) [Compound 11]: affinity at 5-HT2B was put at a Ki of 14 nM.

With `CC(C)(c1cccc(F)c1)N1CCC(Nc2ncnc3sc4c(c23)CCCC4)CC1` [Compound 12], the affinity on 5-HT2B corresponds to a Ki of 15 nM. Molecule `Fc1cccc(CNCCCNc2ncnc3sc4c(c23)CCCC4)c1` [Compound 13] displayed a Ki at 5-HT2B of 17 nM.

The molecule `Fc1cc(F)cc(CN2CCC(Nc3ncnc4sccc34)CC2)c1` [Compound 14] had a concentration for half-maximal inhibition (IC50) with Rat Fundus of 1600 nM. Besides, in data set [1] (iv, read-out: T1/2 (hr) rat iv (converted)), the half-life was 0.3 h. The affinity at 5-HT2B, expressed as Ki, was 18 nM. In turn, `CC(C)Cc1cc2c(NC3CCN(C(C)c4c(F)cccc4F)CC3)ncnc2s1` (stereo not drawn) [Compound 15] displayed an inhibition constant Ki at 5-HT2B of 20 nM. Molecule `CC(c1c(F)cccc1F)N1CCC(Nc2ncnc3sc4c(c23)CCCC4)CC1` (stereo not drawn) [Compound 16] had a Ki on 5-HT2B of 44 nM. Same read-out and setting: as for `CC(NCCCNc1ncnc2sc3c(c12)CCCC3)c1cccc(F)c1` (stereo not drawn) [Compound 17], the figure is 52 nM; as for `CC(C)Cc1cc2c(NC3CCN(C(C)c4c(F)cc(F)cc4F)CC3)ncnc2s1` (stereo not drawn) [Compound 18], 70 nM; as for `CC(c1c(F)cc(F)cc1F)N1CCC(Nc2ncnc3sc4c(c23)CCCC4)CC1` (stereo not drawn) [Compound 19], 72 nM. `CC(C)CC(c1cccc(F)c1)N1CCC(Nc2ncnc3sc4c(c23)CCCC4)CC1` (stereo not drawn) [Compound 20]: on 5-HT2B, affinity was put at a Ki of 84 nM.

Molecule `CC(C#N)(c1cccc(F)c1)N1CCC(Nc2ncnc3sc4c(c23)CCCC4)CC1` (stereo not drawn) [Compound 21] gave a Ki on 5-HT2B of 120 nM.

As to `CC(C)Cc1cc2c(NCCCNC(C)c3cccc(F)c3)ncnc2s1` (stereo not drawn) [Compound 22], at 5-HT2B, the inhibition constant Ki was 150 nM.

`Cc1sc2ncnc(NC3CCN(Cc4ccccc4C#N)CC3)c2c1C` [Compound 23] had a Ki on 5-HT2B of 210 nM. In turn, `Fc1cccc(C(N2CCC(Nc3ncnc4sc5c(c34)CCCC5)CC2)C(F)(F)F)c1` (stereo not drawn) [Compound 24] gave an inhibition constant Ki at 5-HT2B of 950 nM. With `CC(c1cccc(F)c1)N1CCC(C)(Nc2ncnc3sc4c(c23)CCCC4)CC1` (stereo not drawn) [Compound 25], on 5-HT2B, the affinity, expressed as Ki, was 1200 nM. For the molecule `CC(C)Cc1cc2c(N3CCC(NCc4cc(F)cc(F)c4)CC3)ncnc2s1` [Compound 26], the Ki at 5-HT2B is 1300 nM.

These data come from patent US20040248904A1, “New piperidinylamino-thieno[2,3-d] pyrimidine compounds” (priority 2003, published 2004).
